Read-outs that look alike come from different tables or passages of the source.
Assays:
B. duncani (WA-1) = assay: In vitro growth inhibition of B. duncani in human erythrocytes (SYBR Green-I); assay type: cell-based, Babesia duncani; details: for IC50: 60 h; for activity against B. duncani, structure-activity relationship: analogs compared within screening, 2-chloro, 4-trifluoromethoxy series or terminal aryl heterocycles
B. divergens (Rouen87) = assay: In vitro growth inhibition of B. divergens in human erythrocytes (SYBR Green-I); assay type: cell-based; details: Babesia divergens, Erythrocyte, DFS20 medium
Experimental: (§1) The effect of DHT derivatives on the intraerythrocytic development of P. falciparum, B. duncani, B. divergens and B. MO1 and the determination of IC50 values were conducted as previously reported ([54], [67]). Briefly, the parasites cultured in vitro (0.1% parasitemia with 5% hematocrit in complete DFS20 medium or RPMI-1640) were treated with various concentrations of the compounds in a 96-well plate and incubated at 37 °C for either 60 h in the case of B. duncani or 72 h in the case of P. falciparum. Parasitemia was then determined using the SYBR Green-I method by adding an equal volume of parasite culture to the lysis buffer (0.008% saponin, 0.08% Triton-X-100, 20 mM Tris-HCl (pH = 7.5), and 5 mM EDTA) containing SYBR Green-I (0.01%). The mixture was then incubated at 37°C for 1 h in the dark. The fluorescence was measured at 480 nm (excitation) and 540 nm (emission) using a BioTek Synergy™ Mx Microplate Reader. Background fluorescence from uninfected erythrocytes maintained in a complete DFS20 and RPMI-1640 medium was subtracted from each sample, and the 50% inhibitory concentration (IC50) of the drug was determined by plotting drug concentrations versus parasite growth using GraphPad Prism 9.2.1. Data are shown as mean ± SD from two biological replicates with three technical replicates.

B. MO1 = assay: In vitro growth inhibition of B. MO1 in human erythrocytes (SYBR Green-I); assay type: cell-based, Babesia MO1; details: DFS20 medium
Experimental: as §1

P. falciparum 3D7 = assay: In vitro growth inhibition of P. falciparum 3D7 (SYBR Green-I); assay type: cell-based, Plasmodium falciparum
P. falciparum Dd2 = assay: In vitro growth inhibition of P. falciparum Dd2 (SYBR Green-I); assay type: cell-based, Plasmodium falciparum; details: DFS20 medium, read-out: PfDd2 (IC50 in nM)
P. falciparum HB3 = assay: In vitro growth inhibition of P. falciparum HB3 (SYBR Green-I); assay type: cell-based, Plasmodium falciparum; details: DFS20 medium, read-out: PfHB3 (IC50 in nM)
[1] = tested on: human cell lines (HepG2, HCT-116, HEK-293, and HeLa); assay: Cytotoxicity on human cell lines, average / overall, and therapeutic index; assay type: cell-based; details: HepG2, HCT-116, HEK-293, HeLa, MTT 72 h
Experimental: HeLa, HepG2, HEK293, and HCT116 cell lines were obtained from the American Type Culture Collection (ATCC) and maintained in Dulbecco’s modified Eagle’s medium (DMEM) (Invitrogen 11995–065) containing 25 mM glucose, 1 mM sodium pyruvate, and supplemented with 5 mM HEPES, 10% FBS, and penicillin-streptomycin (50 U/mL penicillin, 50 µg/mL streptomycin). Cells were seeded in a 96-well tissue culture plate (20,000 cells per well) and allowed to adhere for 24 hours, after which they were treated with a 12-step 2-fold serial dilution of each drug starting at 1 mM as the highest final concentration. Cells maintained in the medium supplemented with either 0.1% or 10% DMSO were used as negative and positive vehicle controls, respectively. The plates were incubated at 37 °C for 72 h, after which each well was incubated with 0.5 mg/mL of MTT reagent (MP Chemicals #02102227) for 4 h in the dark at 37 °C. The formazan crystals formed by living cells were solubilized with the addition of 100 µL of DMSO to each well. We measured the OD590nm using a SpectraMax plate reader. From the obtained OD values, percent cell viability was estimated by normalizing to the mean of 10% DMSO wells (set as 100% toxicity) and mean of the vehicle control wells (set as 0% toxicity). Dose-response curves were plotted using GraphPad Prism version 9.1.2.

B. microti = tested on: B. microti; parameters: method as in PMID 7447406; details: Mongolian jirds; cited from earlier work
Babesia gibsoni = tested on: Babesia gibsoni; parameters: method as in PMID 18794380, PMID 21904052; details: cited from earlier work
Babesia bovis = tested on: Babesia bovis; parameters: method as in PMID 18794380, PMID 21904052; details: cited from earlier work
B. duncani = tested on: B. duncani; parameters: method as in PMID 37055610; details: previous studies; read-out: IC50 against B. duncani; cited from earlier work
[2] = Babesia duncani, Erythrocyte, read-out: B. duncani WA1 (IC50 in nM), DFS20 medium, 60 h
[3] = Plasmodium falciparum, 3D7, 72 h, DFS20 medium, 72 h, read-out: Pf3D7 (IC50 in nM)
[4] = Plasmodium falciparum, 3D7, DFS20, Table S3, read-out: P.falciparum 3D7 (IC50 in nM), DFS20
[5] = Plasmodium falciparum, 3D7, RPMI-1640 + 10% human serum, read-out: P.falciparum 3D7 (IC50 in nM), RPMI-1640 + 10%human serum
[6] = Plasmodium falciparum, DD2, 72 h
[7] = Plasmodium falciparum, HB3, 72 h

Structure (SMILES)	IC50 (B. duncani (WA-1); [2])	IC50 (B. divergens (Rouen87))	IC50 (B. MO1; Babesia, Erythrocyte)	IC50 (P. falciparum 3D7; [3])	IC50 (P. falciparum 3D7; [4])	IC50 (P. falciparum 3D7; [5])	IC50 (P. falciparum Dd2; [6])	IC50 (P. falciparum HB3; [7])	IC50 [1]	activity against B. duncani, structure-activity relationship (B. duncani (WA-1))	IC50 (B. duncani (WA-1); read-out: B. duncani WA1 (IC50 in nM), DFS20 medium)	IC50 (B. MO1)	IC50 (P. falciparum 3D7; DFS20 medium, 72 h, read-out: Pf3D7 (IC50 in nM))	IC50 (P. falciparum Dd2; 72 h)	IC50 (P. falciparum HB3; 72 h)	activity against B. microti infection (B. microti)	inhibition of in vitro parasite growth of Babesia gibsoni (Babesia gibsoni)	inhibition of in vitro parasite growth of Babesia bovis (Babesia bovis)	IC50 (B. duncani)
CC1(C)N=C(N)N=C(N)N1OCCCOc1ccc(Cl)cc1Cl [JPC-210]	3.6 ± 0.42 nM	3.1 ± 1.42 nM	0.8 ± 0.24 nM	3.1 ± 1.24 nM	1.6 ± 0.025 nM	1.2 ± 0.1 nM	0.05 ± 0.01 nM	0.4 ± 0.07 nM	69 µM	–	–	–	–	–	–	–	–	–	–
COc1ccc(OCCCON2C(N)=NC(N)=NC2(C)C)cc1 [JPC-1044]	7.1 ± 0.32 nM	12 ± 0.16 nM	0.2 ± 0.15 nM	3.3 ± 2 nM	2 ± 0.02 nM	3.8 ± 0.022 nM	0.6 ± 0.14 nM	0.42 ± 0.25 nM	62 µM	–	–	–	–	–	–	–	–	–	–
CC1(C)N=C(N)N=C(N)N1OCCCOc1ccc(-n2cncn2)cc1 [JPC-1059]	10.3 ± 0.7 nM	3.7 ± 0.7 nM	5.4 ± 1.4 nM	2 ± 0.64 nM	1.3 ± 0.09 nM	1.4 ± 0.021 nM	0.3 ± 0.02 nM	0.3 ± 0.17 nM	132 µM	beneficial	–	–	–	–	–	–	–	–	–
CC1(C)N=C(N)N=C(N)N1OCCCOc1ccc(Cl)c(C#N)c1 [JPC-2053]	13.4 ± 1.41 nM	6.6 ± 1.7 nM	0.6 ± 0.5 nM	2.6 ± 1.51 nM	1.5 ± 0.071 nM	1.4 ± 0.021 nM	0.5 ± 0.045 nM	0.75 ± 0.34 nM	26 µM	–	–	–	–	–	–	–	–	–	–
CC1(C)N=C(N)N=C(N)N1OCCCOc1ccccc1OC(F)(F)F [JPC-2060]	~0.8 nM	~4 nM	~0.5 nM	~1.9 nM	1.9 ± 0.29 nM	0.8 ± 0.17 nM	~0.4 nM	~0.6 nM	15 µM	–	1 ± 0.06 nM	0.6 ± 0.07 nM	2.3 ± 0.5 nM	0.77 ± 0.4 nM	0.7 ± 0.1 nM	–	–	–	–
CCC(C)C1(C)N=C(N)N=C(N)N1OCCCOc1cc(Cl)c(Cl)cc1Cl (centres unmarked) [JPC-2748]	4.4 ± 0.01 nM	3.7 ± 0.3 nM	4 ± 0.74 nM	3 ± 0.77 nM	0.2 ± 0.12 nM	2 ± 0.061 nM	12 ± 1.13 nM	0.41 ± 0.07 nM	1.5 µM	–	–	–	–	–	–	–	–	–	–
CC1(C)N=C(N)N=C(N)N1OCCCOc1ccc(-c2nnnn2C(C)(C)C)cc1 [JPC-3671]	1.6 ± 0.5 nM	24 ± 2.14 nM	6.5 ± 0.7 nM	1 ± 0.32 nM	2.1 ± 0.016 nM	2.6 ± 0.02 nM	17 ± 1.5 nM	0.4 ± 0.02 nM	38 µM	beneficial	–	–	–	–	–	–	–	–	–
NC1=NC(c2ccc(F)cc2)N(OCCCOc2ccc(OC(F)(F)F)cc2Cl)C(N)=N1 (centres unmarked) [JPC-3680]	3.2 ± 0.21 nM	40 ± 0.7 nM	6 ± 0.5 nM	1.7 ± 0.7 nM	1.2 ± 0.03 nM	1.8 ± 0.3 nM	37 ± 1.25 nM	2.1 ± 0.33 nM	10 µM	increased activity	–	–	–	–	–	–	–	–	–
NC1=NC(c2cccnc2)N(OCCCOc2ccc(OC(F)(F)F)cc2Cl)C(N)=N1 (centres unmarked) [JPC-3681]	2 ± 0.2 nM	6.4 ± 0.7 nM	1 ± 0.07 nM	2.3 ± 0.3 nM	0.7 ± 0.072 nM	1 ± 0.08 nM	0.45 ± 0.03 nM	0.8 ± 0.07 nM	38 µM	increased activity	–	–	–	–	–	–	–	–	–
Nc1ccc(S(=O)(=O)c2ccc(N)cc2)cc1 [dapsone]	–	–	–	–	–	–	–	–	–	–	–	–	–	–	–	little to no activity	–	–	–
CN(Cc1cnc2nc(N)nc(N)c2n1)c1ccc(C(=O)N[C@@H](CCC(=O)O)C(=O)O)cc1 [methotrexate]	–	–	–	–	–	–	–	–	–	–	–	–	–	–	–	–	moderate to effective inhibition	moderate to effective inhibition	–
CCc1nc(N)nc(N)c1-c1ccc(Cl)cc1 [pyrimethamine, 2,4-Diamino-5-(4-chlorophenyl)−6-ethylpyrimidine]	–	–	–	–	–	–	–	–	–	–	–	–	–	–	–	little to no activity	moderate to effective inhibition	moderate to effective inhibition	940 nM
Cc1cc(NS(=O)(=O)c2ccc(N)cc2)no1 [sulfamethoxazole]	–	–	–	–	–	–	–	–	–	–	–	–	–	–	–	little to no activity	–	–	–
COc1cc(Cc2cnc(N)nc2N)cc(OC)c1OC [trimethoprim]	–	–	–	–	–	–	–	–	–	–	–	–	–	–	–	little to no activity	moderate to effective inhibition	moderate to effective inhibition	–
